Experimental data taken from ChEMBL document CHEMBL1154797, “Synthesis, anti-bacterial and anti-fungal activities of some novel Schiff bases containing 2,4-disubstituted thiazole ring” (2010).
Values after ≈ are worked out from the molar mass of the structure shown.

Experiments:
Candida albicans [1] = type: functional
Description: Antifungal activity against Candida albicans at MIC after 72 hrs by disk diffusion assay

Candida albicans [2] = assay: Antifungal activity against Candida albicans; type: functional
Cryptococcus neoformans [3] = type: functional
Description: Antifungal activity against Cryptococcus neoformans at MIC after 72 hrs by disk diffusion assay

Cryptococcus neoformans [4] = assay: Antifungal activity against Cryptococcus neoformans; type: functional
Aspergillus flavus [5] = type: functional
Description: Antifungal activity against Aspergillus flavus at MIC after 72 hrs by disk diffusion assay

Aspergillus flavus [6] = assay: Antifungal activity against Aspergillus flavus; type: functional
Pseudomonas aeruginosa [7] = assay: Antibacterial activity against Pseudomonas aeruginosa at MIC after 24 hrs by disk diffusion assay; type: functional
Pseudomonas aeruginosa [8] = assay: Antibacterial activity against Pseudomonas aeruginosa; type: functional
Candida tropicalis [9] = type: functional
Description: Antifungal activity against Candida tropicalis at MIC after 72 hrs by disk diffusion assay

Candida tropicalis [10] = assay: Antifungal activity against Candida tropicalis; type: functional
Vibrio cholerae [11] = assay: Antibacterial activity against Vibrio cholerae at MIC after 24 hrs by disk diffusion assay; type: functional
Vibrio cholerae [12] = assay: Antibacterial activity against Vibrio cholerae; type: functional
Staphylococcus aureus [13] = assay: Antibacterial activity against Staphylococcus aureus at MIC after 24 hrs by disk diffusion assay; type: functional
Staphylococcus aureus [14] = assay: Antibacterial activity against Staphylococcus aureus; type: functional
Klebsiella pneumoniae [15] = assay: Antibacterial activity against Klebsiella pneumoniae at MIC after 24 hrs by disk diffusion assay; type: functional
Klebsiella pneumoniae [16] = assay: Antibacterial activity against Klebsiella pneumoniae; type: functional
Salmonella enterica [17] = assay: Antibacterial activity against Salmonella typhi at MIC after 24 hrs by disk diffusion assay; type: functional, Salmonella enterica subsp. enterica serovar Typhi
Salmonella enterica [18] = assay: Antibacterial activity against Salmonella typhi; type: functional, Salmonella enterica subsp. enterica serovar Typhi

SMILES	diameter of the inhibition zone (DIZ) (Candida albicans [1]) [mm]	MIC (Candida albicans [2]) [µg/mL]	diameter of the inhibition zone (DIZ) (Cryptococcus neoformans [3]) [mm]	MIC (Cryptococcus neoformans [4]) [µg/mL]	diameter of the inhibition zone (DIZ) (Aspergillus flavus [5]) [mm]	MIC (Aspergillus flavus [6]) [µg/mL]	other results
COc1ccc(-c2csc(N/N=C/c3ccccc3)n2)cc1	13	12.5 (≈ 40.4 µM)	14	12.5 (≈ 40.4 µM)	13	12.5 (≈ 40.4 µM)	
COc1ccc(-c2csc(N/N=C/c3ccc(O)cc3O)n2)cc1							diameter of the inhibition zone (DIZ) (Pseudomonas aeruginosa [7]): <10 mm; MIC (Pseudomonas aeruginosa [8]): 50 µg/mL (≈ 146 µM)
Brc1ccc(-c2csc(N/N=C/c3ccccc3)n2)cc1	15	12.5 (≈ 34.9 µM)	15	12.5 (≈ 34.9 µM)	16	12.5 (≈ 34.9 µM)	diameter of the inhibition zone (DIZ) (Candida tropicalis [9]): 14 mm; MIC (Candida tropicalis [10]): 25 µg/mL (≈ 69.8 µM)
OC(/C(=N/Nc1nc(-c2ccc(Br)cc2)cs1)c1ccccc1)c1ccccc1 (stereo not given)	19	6.25 (≈ 13.5 µM)	21	6.25 (≈ 13.5 µM)	17	6.25 (≈ 13.5 µM)	diameter of the inhibition zone (DIZ) (Vibrio cholerae [11]): 17 mm; MIC (Vibrio cholerae [12]): 12.5 µg/mL (≈ 26.9 µM); diameter of the inhibition zone (DIZ) (Candida tropicalis [9]): 16 mm; MIC (Candida tropicalis [10]): 6.25 µg/mL (≈ 13.5 µM); diameter of the inhibition zone (DIZ) (Staphylococcus aureus [13]): 17 mm; MIC (Staphylococcus aureus [14]): 12.5 µg/mL (≈ 26.9 µM)
Brc1ccc(-c2csc(NN=C3CCCCC3)n2)cc1	17	12.5 (≈ 35.7 µM)	16	12.5 (≈ 35.7 µM)	16	12.5 (≈ 35.7 µM)	diameter of the inhibition zone (DIZ) (Candida tropicalis [9]): 14 mm; MIC (Candida tropicalis [10]): 12.5 µg/mL (≈ 35.7 µM)
COc1ccc(/C=N/Nc2nc(-c3ccc(OC)cc3)cs2)cc1							diameter of the inhibition zone (DIZ) (Staphylococcus aureus [13]): <10 mm; MIC (Staphylococcus aureus [14]): 50 µg/mL (≈ 147 µM)
COc1ccc(-c2csc(N/N=C/c3cc(OC)c(OC)c(OC)c3)n2)cc1							diameter of the inhibition zone (DIZ) (Staphylococcus aureus [13]): <10 mm; MIC (Staphylococcus aureus [14]): 50 µg/mL (≈ 125 µM)
COc1ccc(-c2csc(N/N=C/c3ccc(OC)c(OC)c3)n2)cc1							diameter of the inhibition zone (DIZ) (Staphylococcus aureus [13]): <10 mm; MIC (Staphylococcus aureus [14]): 50 µg/mL (≈ 135 µM)
COc1ccc(-c2csc(N/N=C/c3ccccc3O)n2)cc1	11	25 (≈ 76.8 µM)	12	25 (≈ 76.8 µM)			diameter of the inhibition zone (DIZ) (Candida tropicalis [9]): 13 mm; MIC (Candida tropicalis [10]): 25 µg/mL (≈ 76.8 µM)
COc1ccc(-c2csc(N/N=C(\c3ccccc3)C(O)c3ccccc3)n2)cc1 (stereo not given)					13	25 (≈ 60.2 µM)	diameter of the inhibition zone (DIZ) (Vibrio cholerae [11]): 16 mm; MIC (Vibrio cholerae [12]): 25 µg/mL (≈ 60.2 µM)
Fc1ccccc1/C=N/Nc1nc(-c2ccc(Br)cc2)cs1							diameter of the inhibition zone (DIZ) (Klebsiella pneumoniae [15]): <10 mm; MIC (Klebsiella pneumoniae [16]): 50 µg/mL (≈ 133 µM)
Oc1ccccc1/C=N/Nc1nc(-c2ccc(Br)cc2)cs1							diameter of the inhibition zone (DIZ) (Klebsiella pneumoniae [15]): <10 mm; MIC (Klebsiella pneumoniae [16]): 50 µg/mL (≈ 134 µM)
Brc1ccc(-c2csc(N/N=C/c3c[nH]c4ccccc34)n2)cc1			13	25 (≈ 62.9 µM)			
Brc1ccc(-c2csc(NN=C3CCCC3)n2)cc1	16	12.5 (≈ 37.2 µM)	14	12.5 (≈ 37.2 µM)	15	12.5 (≈ 37.2 µM)	diameter of the inhibition zone (DIZ) (Vibrio cholerae [11]): 19 mm; MIC (Vibrio cholerae [12]): 6.25 µg/mL (≈ 18.6 µM)
COc1ccc(-c2csc(NN=C3CCCC3)n2)cc1	17	12.5 (≈ 43.5 µM)	18	12.5 (≈ 43.5 µM)	18	12.5 (≈ 43.5 µM)	
O=C(O)c1cn(C2CC2)c2cc(N3CCNCC3)c(F)cc2c1=O [CIPROFLOXACIN]							diameter of the inhibition zone (DIZ) (Klebsiella pneumoniae [15]): 23 mm; MIC (Klebsiella pneumoniae [16]): 6.25 µg/mL (≈ 18.9 µM); diameter of the inhibition zone (DIZ) (Staphylococcus aureus [13]): 25 mm; diameter of the inhibition zone (DIZ) (Salmonella enterica [17]): 18 mm; MIC (Salmonella enterica [18]): 6.25 µg/mL (≈ 18.9 µM)
OC(Cn1cncn1)(Cn1cncn1)c1ccc(F)cc1F [FLUCONAZOLE]	22	6.25 (≈ 20.4 µM)	22	6.25 (≈ 20.4 µM)	19	6.25 (≈ 20.4 µM)	diameter of the inhibition zone (DIZ) (Candida tropicalis [9]): 20 mm; MIC (Candida tropicalis [10]): 6.25 µg/mL (≈ 20.4 µM)
